Data: ChEMBL document CHEMBL5518236, “Discovery of Clinical Candidate AZD5462, a Selective Oral Allosteric RXFP1 Agonist for Treatment of Heart Failure” (J Med Chem, 2024)
Activity calls are given as the source filed them. The rule behind the calls is not given here.

Assays:
[1] = Octanol/water partition coefficient, logD of the compound at pH 7.4 by shake flask method; format: physicochemical
Relaxin receptor 1 = target: T1, Relaxin receptor 1 (Homo sapiens, UniProt Q9HBX9)
T1 sequence (Q9HBX9 whole entry): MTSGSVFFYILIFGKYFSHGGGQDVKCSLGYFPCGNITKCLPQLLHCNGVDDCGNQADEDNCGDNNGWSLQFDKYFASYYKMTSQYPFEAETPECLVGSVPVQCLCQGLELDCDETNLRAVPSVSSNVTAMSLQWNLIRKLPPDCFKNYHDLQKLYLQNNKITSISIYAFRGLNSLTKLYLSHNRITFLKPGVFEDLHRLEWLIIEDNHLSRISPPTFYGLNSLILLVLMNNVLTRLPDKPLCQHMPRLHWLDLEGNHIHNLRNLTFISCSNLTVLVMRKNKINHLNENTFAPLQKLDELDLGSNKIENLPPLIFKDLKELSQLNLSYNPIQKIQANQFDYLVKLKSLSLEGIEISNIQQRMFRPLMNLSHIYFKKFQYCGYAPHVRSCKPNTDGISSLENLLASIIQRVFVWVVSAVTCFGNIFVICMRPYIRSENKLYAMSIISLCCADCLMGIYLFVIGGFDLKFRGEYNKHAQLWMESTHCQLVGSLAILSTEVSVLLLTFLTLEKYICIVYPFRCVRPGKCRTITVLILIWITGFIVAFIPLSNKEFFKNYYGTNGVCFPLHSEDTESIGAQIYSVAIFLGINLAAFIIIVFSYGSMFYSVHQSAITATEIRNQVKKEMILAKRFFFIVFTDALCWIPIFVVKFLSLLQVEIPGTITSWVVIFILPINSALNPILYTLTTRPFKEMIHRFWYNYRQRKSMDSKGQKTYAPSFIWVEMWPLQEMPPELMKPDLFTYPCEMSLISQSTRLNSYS
Description: Agonist activity at human RXFP1 expressed in CHO cells assessed as increase in cAMP level measured after 2 hrs by HTRF cAMP assay

[2] = Metabolic stability in human liver microsomes assessed as intrinsic clearance at 1 uM measured upto 30 mins by LC-MS/MS analysis; format: ADME, Microsome; conditions: read-out: CLH
[3] = Metabolic stability in human liver microsomes assessed as unbound intrinsic clearance at 1 uM measured upto 30 mins by LC-MS/MS analysis; format: ADME, Microsome; conditions: 0.5 h
[4] = Metabolic stability in human hepatocytes assessed as intrinsic clearance measured per 10^6 viable cells/ml at 1 uM measured upto 120 mins by LC-MS/MS analysis; format: ADME, cell-based, Hepatocyte; conditions: read-out: CLH
[5] = Metabolic stability in human hepatocytes assessed as unbound intrinsic clearance measured per 10^6 viable cells/ml at 1 uM measured upto 120 mins by LC-MS/MS analysis; format: ADME, cell-based, Hepatocyte; conditions: 2 h
[6] = Apparent permeability across apical to basolateral side in human Caco-2 cells at pH 7.4 by LC-MS/MS analysis; format: ADME, cell-based; conditions: Caco-2, pH 7.4
[7] = target: T2, Relaxin receptor 1 (Homo sapiens) (UniProt Q9HBX9); conditions: CHO-K1, time 15.0 min
T2 sequence (whole entry): T1 sequence (Q9HBX9 whole entry)

[8] = Protein binding in human plasma assessed as fraction unbound at 5 uM measured after 18 hrs by LC-MS/MS analysis; format: ADME, cell-free; conditions: read-out: PPB
[9] = Protein binding in rat plasma assessed as fraction unbound at 5 uM measured after 18 hrs by LC-MS/MS analysis; format: ADME, cell-free; conditions: read-out: PPB

Row | SMILES | logD [1] | EC50 (Relaxin receptor 1) [nM] | microsomal CLint at 1 µM [2] [µL/min/mg] | CL free [3] [µL/min/mg] | hepatocyte CLint at 1 µM [4] [µL/min/1e6 cells] | CL free [5] | Papp A→B [6] [×10⁻⁶ cm/s] | pEC50 [7] | fraction unbound at 18 h, 5 µM [8] | fraction unbound at 18 h, 5 µM [9]
1 | COc1cc(F)c(C[C@H]2CC[C@@](C)(C(=O)O)CC2)cc1C(=O)N[C@@H]1[C@H]2CC[C@H](C2)[C@@H]1C(=O)NCC1(C)CCC1 | 4.3 | 158 | 78 | 269 | 9.8 | 43 µL/min | – | – | – | –
2 | COc1cc(F)c(O[C@H]2CC[C@@](C)(C(=O)O)CC2)cc1C(=O)N[C@@H]1[C@H]2CC[C@H](C2)[C@@H]1C(=O)NCC(C)(C)C(F)(F)F | 3.19 | – | 13 | 23 | 4.2 | 8.6 µL/min | 66 | – | – | –
3 | COc1c(C#N)cc(O[C@H]2CC[C@@](C)(C(=O)O)CC2)cc1C(=O)N[C@@H]1[C@H]2CC[C@H](C2)[C@@H]1C(=O)NCC1(C)CCC1 | 2.9 | 79.4 | 50 | 69 | 11 | 16 µL/min | – | – | – | –
4 | Cc1cc(F)c(O[C@H]2CC[C@@](C)(C(=O)O)CC2)cc1C(=O)N[C@@H]1[C@H]2CC[C@H](C2)[C@@H]1C(=O)NCC1(C)CCC1 | 2.83 | 2000 | 161 | 23 | 15 | 22 µL/min | – | – | – | –
5 | COc1cc(F)c(O[C@H]2CC[C@](C(=O)O)(C(F)(F)F)CC2)cc1C(=O)N[C@@H]1[C@H]2CC[C@H](C2)[C@@H]1C(=O)NCC1(C)CCC1 | 2.1 | – | < 3 | < 5.5 | 3.9 | 8.8 µL/min | 35 | – | – | –
6 | CC1(CNC(=O)[C@H]2[C@@H]3CC[C@@H](C3)[C@H]2NC(=O)c2ccc(F)c(O[C@H]3CC[C@@](C)(C(=O)O)CC3)c2)CCC1 | 3 | 316 | 6.6 | 8.8 | 8.4 | 16 µL/min | – | – | – | –
7 | CC(C)Oc1ccccc1C(=O)Nc1ccccc1C(=O)Nc1cccc(S(=O)(=O)C(F)(F)F)c1 | > 4 | – | – | – | – | 3.07 10^3uL/min | – | inactive | < 0.0002 | < 0.0002
